According to patent US10442803B2, “Tricyclic heterocycles as bet protein inhibitors” (Incyte Corporation, priority 2013, dated 2019):
Counter-ions that a name gives are not always drawn.

Test system: KMS.12.BM cells
Assay: KMS.12.BM cell viability assay
Type: cell-based
Details: 72 h; KMS.12.BM human myeloma cells, 3 days, Cell Titer-GLO ATP quantitation; read-out: KMS cellular IC50
How it was run: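 IC50 derived from luminescent ATP quantitation (Cell Titer-GLO) of viable cells after 3-day compound treatment. KMS.12.BM human myeloma line seeded at 5000 cells/well in RPMI with 10% FBS.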

| Compound | IC50 [nM] |
| --- | --- |
| Cc1cc2c(ccc3nnc(C)n32)n1Cc1cccc(C(N)=O)c1 [Example 30, 3-((1,7-dimethyl-6H-pyrrolo[2,3-e][1,2,4]triazolo[4,3-a]pyridin-6-yl)methyl)benzamide trifluoroacetate salt] | 1000 to 10000 |
| Cc1cc2c(cc(NC3CCN(C)CC3)c3nnc(C)n32)n1Cc1ccccn1 [Example 153, 1,7-dimethyl-N-(1-methylpiperidin-4-yl)-6-(pyridin-2-ylmethyl)-6H-pyrrolo[2,3-e][1,2,4]triazolo[4,3-a]pyridin-4-amine] | ≤ 1000 |
| Cc1cc2c(ccc3nnc(C)n32)n1Cc1ccc(O)cc1 [Example 35, 4-[(1,7-dimethyl-6H-pyrrolo[2,3-e][1,2,4]triazolo[4,3-a]pyridin-6-yl)methyl]phenol] | ≤ 1000 |
| Cc1cc2c(cc(NCCO)c3nnc(C)n32)n1Cc1ccccc1 [Example 210, 2-[(6-Benzyl-1,7-dimethyl-6H-pyrrolo[2,3-e][1,2,4]triazolo[4,3-a]pyridin-4-yl)amino]ethanol] | 1000 to 10000 |
| Cc1cc2c(cc(NC(N)=O)c3nnc(C)n32)n1Cc1ccc(F)cc1 [Example 239, 1-(6-(4-Fluorobenzyl)-1,7-dimethyl-6H-pyrrolo[2,3-e][1,2,4]triazolo[4,3-a]pyridin-4-yl)urea] | ≤ 1000 |
| CCn1cnc(-c2cc3c(ccc4nnc(C)n43)n2Cc2ccccc2)c1 [Example 80, 6-benzyl-7-(1-ethyl-1H-imidazol-4-yl)-1-methyl-6H-pyrrolo[2,3-e][1,2,4]triazolo[4,3-a]pyridine] | ≤ 1000 |
| Cc1nnc2ccc3c(cc(-c4cn[nH]c4)n3Cc3ccccc3)n12 [Example 63, 6-benzyl-1-methyl-7-(1H-pyrazol-4-yl)-6H-pyrrolo[2,3-e][1,2,4]triazolo[4,3-a]pyridine] | ≤ 1000 |
| Cc1nnc2ccc3c(cc(C(=O)NCCN4CCOCC4)n3Cc3cccc(Cl)c3)n12 [Example 119, 6-(3-Chlorobenzyl)-1-methyl-N-(2-morpholin-4-ylethyl)-6H-pyrrolo[2,3-e][1,2,4]triazolo[4,3-a]pyridine-7-carboxamide trifluoroacetate salt] | ≤ 1000 |
| Cc1nnc2ccc3c(cc(-c4cnn(CC#N)c4)n3Cc3ccccc3)n12 [Example 64, [4-(6-benzyl-1-methyl-6H-pyrrolo[2,3-e][1,2,4]triazolo[4,3-a]pyridin-7-yl)-1H-pyrazol-1-yl]acetonitrile] | ≤ 1000 |
| Cc1nnc2ccc3c(cc(-c4cccs4)n3Cc3ccccc3)n12 [Example 73, 6-benzyl-1-methyl-7-(2-thienyl)-6H-pyrrolo[2,3-e][1,2,4]triazolo[4,3-a]pyridine] | ≤ 1000 |
| CCS(=O)(=O)N1CC(n2ccc(-c3cc4c(ccc5nnc(C)n54)n3Cc3cccc(Cl)c3)n2)C1 [Example 166, 6-(3-Chlorobenzyl)-7-{1-[1-(ethylsulfonyl)azetidin-3-yl]-1H-pyrazol-3-yl}-1-methyl-6H-pyrrolo[2,3-e][1,2,4]triazolo[4,3-a]pyridine trifluoroacetate salt] | ≤ 1000 |
| CNC(=O)c1cc2c(ccc3nnc(C)n32)n1Cc1ccccc1 [Example 82, 6-benzyl-N,1-dimethyl-6H-pyrrolo[2,3-e][1,2,4]triazolo[4,3-a]pyridine-7-carboxamide] | ≤ 1000 |
| Cc1cc2c(cc(N[C@H]3CCN(C)[C@H](C)C3)c3nnc(C)n32)n1Cc1ccccc1 (racemic) [Example 225, 6-Benzyl-N-[(2R,4S)-1,2-dimethylpiperidin-4-yl]-1,7-dimethyl-6H-pyrrolo[2,3-e][1,2,4]triazolo[4,3-a]pyridin-4-amine and 6-Benzyl-N-[(2S,4R)-1,2-dimethylpiperidin-4-yl]-1,7-dimethyl-6H-pyrrolo[2,3-e][1,2,4]triazolo[4,3-a]pyridin-4-amine] | ≤ 1000 |
| CCNC(=O)c1cc2c(ccc3nnc(C)n32)n1Cc1cccc(C(F)(F)F)c1 [Example 137, N-Ethyl-1-methyl-6-[3-(trifluoromethyl)benzyl]-6H-pyrrolo[2,3-e][1,2,4]triazolo[4,3-a]pyridine-7-carboxamide trifluoroacetate salt] | ≤ 1000 |
| Cc1cc2c(cc(NCCN3CCOCC3)c3nnc(C)n32)n1Cc1ccccc1 [Example 208, 6-Benzyl-1,7-dimethyl-N-(2-morpholin-4-ylethyl)-6H-pyrrolo[2,3-e][1,2,4]triazolo[4,3-a]pyridin-4-amine] | 1000 to 10000 |
| Cc1nnc2ccc3c(cc(-c4ccn(C5CN(CCO)C5)n4)n3Cc3cccc(Cl)c3)n12 [Example 179, 2-(3-{3-[6-(3-Chlorobenzyl)-1-methyl-6H-pyrrolo[2,3-e][1,2,4]triazolo[4,3-a]pyridin-7-yl]-1H-pyrazol-1-yl}azetidin-1-yl)ethanol bis(trifluoroacetate) salt] | ≤ 1000 |
| Cc1nnc2ccc3c(cc(-c4ncco4)n3Cc3cc(Cl)cc(CN4CC(O)C4)c3)n12 [Example 198, 1-(3-Chloro-5-{[1-methyl-7-(1,3-oxazol-2-yl)-6H-pyrrolo[2,3-e][1,2,4]triazolo[4,3-a]pyridin-6-yl]methyl}benzyl)azetidin-3-ol bis(trifluoroacetate) salt] | ≤ 1000 |
| COCCNc1cc2c(cc(C)n2Cc2ccccc2)n2c(C)nnc12 [Example 209, 6-Benzyl-N-(2-methoxyethyl)-1,7-dimethyl-6H-pyrrolo[2,3-e][1,2,4]triazolo[4,3-a]pyridin-4-amine] | 1000 to 10000 |

| Compound | IC50 [nM] |
| --- | --- |
| Cc1cc2c(cc(NC(N)=O)c3nnc(C)n32)n1Cc1cc(F)cc(F)c1 [Example 233, 1-(6-(3,5-Difluorobenzyl)-1,7-dimethyl-6H-pyrrolo[2,3-e][1,2,4]triazolo[4,3-a]pyridin-4-yl)urea] | ≤ 1000 |
| CCNC(=O)c1cc2c(ccc3nnc(C)n32)n1Cc1cccc(Cl)c1 [Example 113, 6-(3-Chlorobenzyl)-N-ethyl-1-methyl-6H-pyrrolo[2,3-e][1,2,4]triazolo[4,3-a]pyridine-7-carboxamide trifluoroacetate salt] | ≤ 1000 |
| Cc1cc2c(cc(N[C@H]3CCOC3)c3nnc(C)n32)n1Cc1ccccc1 [Example 148, 6-benzyl-1,7-dimethyl-N-[(3S)-tetrahydrofuran-3-yl]-6H-pyrrolo[2,3-e][1,2,4]triazolo[4,3-a]pyridin-4-amine] | 1000 to 10000 |
| Cc1cc2c(cc(N[C@H]3CC[C@@H](C#N)CC3)c3nnc(C)n32)n1Cc1ccccc1 (single isomer, unassigned) [Example 215 b, 4-[(6-benzyl-1,7-dimethyl-6H-pyrrolo[2,3-e][1,2,4]triazolo[4,3-a]pyridin-4-yl)amino]cyclohexanecarbonitrile trifluoroacetate salt] | 1000 to 10000 |
| Cc1ccccc1Cn1c(C)cc2c1ccc1nnc(C)n12 [Example 17, 1,7-dimethyl-6-(2-methylbenzyl)-6H-pyrrolo[2,3-e][1,2,4]triazolo[4,3-a]pyridine] | ≤ 1000 |
| Cc1nnc2ccc3c(cc(-c4ccn(CCN5CCOCC5)n4)n3Cc3ccccc3)n12 [Example 77, 6-benzyl-1-methyl-7-[1-(2-morpholin-4-ylethyl)-1H-pyrazol-3-yl]-6H-pyrrolo[2,3-e][1,2,4]triazolo[4,3-a]pyridine] | ≤ 1000 |
| Cc1cc2c(ccc3nnc(C)n32)n1Cc1cccc(CO)c1 [Example 26, {3-[(1,7-dimethyl-6H-pyrrolo[2,3-e][1,2,4]triazolo[4,3-a]pyridin-6-yl)methyl]phenyl}methanol trifluoroacetate salt] | ≤ 1000 |
| Cc1cc2c(cc(Nc3ccccn3)c3nnc(C)n32)n1Cc1ccccc1 [Example 240, 6-benzyl-1,7-Dimethyl-N-(pyridin-2-yl)-6H-pyrrolo[2,3-e][1,2,4]triazolo[4,3-a]pyridin-4-amine] | 1000 to 10000 |
| CC(=O)N1CC(n2ccc(-c3cc4c(ccc5nnc(C)n54)n3Cc3cccc(Cl)c3)n2)C1 [Example 108, 7-[1-(1-acetylazetidin-3-yl)-1H-pyrazol-3-yl]-6-(3-chlorobenzyl)-1-methyl-6H-pyrrolo[2,3-e][1,2,4]triazolo[4,3-a]pyridine] | ≤ 1000 |
| Cc1nc2c(ccc3nnc(C)n32)n1Cc1ccccc1 [Example 55, 3-benzyl-2,8-dimethyl-3H-imidazo[4,5-e][1,2,4]triazolo[4,3-a]pyridine] | ≤ 1000 |
| Cc1cc2c(ccc3nnc(C)n32)n1Cc1cccc(CNCCO)c1 [Example 36, 2-({3-[(1,7-dimethyl-6H-pyrrolo[2,3-e][1,2,4]triazolo[4,3-a]pyridin-6-yl)methyl]benzyl}amino)ethanol] | ≤ 1000 |
| Cc1nnc2ccc3c(cc(-c4ccn(CC(C)C#N)n4)n3Cc3ccccc3)n12 (racemic) [Example 88, 3-[3-(6-benzyl-1-methyl-6H-pyrrolo[2,3-e][1,2,4]triazolo[4,3-a]pyridin-7-yl)-1H-pyrazol-1-yl]-2-methylpropanenitrile trifluoroacetate salt (racemate)] | ≤ 1000 |
| Cc1cc2c(cc(N[C@@H]3CCN(C(=O)OC(C)(C)C)C3)c3nnc(C)n32)n1Cc1ccccc1 [Example 149, tert-butyl (3R)-3-[(6-benzyl-1,7-dimethyl-6H-pyrrolo[2,3-e][1,2,4]triazolo[4,3-a]pyridin-4-yl)amino]pyrrolidine-1-carboxylate] | 1000 to 10000 |
| Cc1cc2c(ccc3nnc(C)n32)n1CCc1ccccc1 [Example 6, 1,7-dimethyl-6-(2-phenylethyl)-6H-pyrrolo[2,3-e][1,2,4]triazolo[4,3-a]pyridine] | 1000 to 10000 |
| Cc1nnc2ccc3c(cc(-c4ccn[nH]4)n3Cc3ccccc3)n12 [Example 62, 6-benzyl-1-methyl-7-(1H-pyrazol-5-yl)-6H-pyrrolo[2,3-e][1,2,4]triazolo[4,3-a]pyridine] | ≤ 1000 |
| CCNC(=O)c1cccc(Cn2c(C)cc3c2ccc2nnc(C)n23)c1 [Example 33, 3-[(1,7-dimethyl-6H-pyrrolo[2,3-e][1,2,4]triazolo[4,3-a]pyridin-6-yl)methyl]-N-ethylbenzamide trifluoroacetate salt] | ≤ 1000 |
| CCCCC(c1ccccc1)n1c(C)cc2c1ccc1nnc(C)n12 (racemic) [Example 24, 1,7-dimethyl-6-(1-phenylpentyl)-6H-pyrrolo[2,3-e][1,2,4]triazolo[4,3-a]pyridine] | 1000 to 10000 |
